Earlier results on three compounds are cited in publication PMC8619046, “ABCB1 and ABCG2 Control Brain Accumulation and Intestinal Disposition of the Novel ROS1/TRK/ALK Inhibitor Repotrectinib, While OATP1A/1B, ABCG2, and CYP3A Limit Its Oral Availability” (Pharmaceutics, 2021).

For the data set the following is noted: cited from earlier work; for brain-to-plasma ratio: wild-type mice; for fold increase of brain-to-plasma ratio: combined genetic knockout of Abcb1 and Abcg2, mice.

Regarding `C[C@@H](Oc1cc(-c2cnn(C3CCNCC3)c2)cnc1N)c1c(Cl)ccc(F)c1Cl` [crizotinib], the brain-to-plasma ratio entry is “about 0.2”. Also, the “fold enhancement of brain-to-plasma ratio” value (mouse, in vivo) is listed as ~ 15 fold.

Consider `C[C@H]1Oc2cc(cnc2N)-c2c(nn(C)c2C#N)CN(C)C(=O)c2ccc(F)cc21` [lorlatinib], for which the “fold increase of brain-to-plasma ratio” value was 4 fold and the brain-to-plasma ratio is reported as 0.4.

`C[C@@H]1CCc2ncc(F)cc2[C@H]2CCCN2c2ccn3ncc(c3n2)C(=O)N1` [selitrectinib]: the “fold increase of brain-to-plasma ratio” value is 6 fold and the brain-to-plasma ratio is 0.03.
